In patent US5191072A, “Lipid A monosaccharide analogues” (priority 1989, dated 1993):
Like-named read-outs stand apart in the source and are kept apart here.

What was measured:
[1] = tested on: neutrophils; assay: O2^- production stimulating activity in neutrophils; assay type: cell-based, C3 H/HeN mouse; details: Neutrophil, 1 h, read-out: Stimulation %
Method: O2^- Production Stimulating Activity in Neutrophils
O2^- production stimulating activity in neutrophils was evaluated utilizing the following experimental system [see J. Exp. Med., 160, 1656-1671, 1984]. To the peritoneal cavity of C3 H/HeN mouse (male, 8-9 week-aged), physiological saline containing 0.2% (w/v) casein was administered. Three hours later, peritoneal exudate cells (90% or more of which are neutrophils) were collected. These cells (1.7×10^6 cells/ml/tube) were incubated in the presence of the compound according to this invention (1 μg/ml) at 37° C. for 60 minutes. After addition of 80 μM of cytochrome C and 0.1 μM of formyl-methionyl-leucyl-phenylalanine (FMLP), the mixture was incubated in the presence of or in the absence of Superoxide dismutase (SOD) at 37° C. for 10 minutes. Then, SOD-inhibitable cytochrome C reduction was estimated from the difference between absorbances at 550 nm and 541.7 nm, and from molar absorption coefficient (16.5×10^3). O2^- production-stimulating activity was shown in Stimulation % in the following formula.
Stimulation %=(the amount of O2^- produced in the presence of compounds of the invention)/(the amount of O2^- produced in the absence of compounds of the invention)×100-100

[2] = tested on: galactosamine-sensitized mice; assay: Lethal toxicity in galactosamine-sensitized mice; assay type: in vivo; details: intravenous, C57BL mouse, D-galactosamine/HCl 10 mg/mouse i.p.; observed to seventh day; 10080 min
Method: (§1) Lethal Toxicity in Galactosamine-Sensitized Mice
(§2) Lethal toxicity in galactosamin-sensitized mice was evaluated by utilizing the following experiment system [see J.Biochem., 98, 395-406 pp., 1985].
(§3) To C57BL mouse (male, 7-week aged), 10 mg/mouse of D-galactosamine/HCl was intraperitoneally administered. Immediately after that, the compound of this invention was intravenously administered. After these administrations, general conditions of the mouse were observed every one hour for seven hours, and every day from the following day to the seventh day.

[3] = tested on: E.coli. 589 strain; assay: Nonspecific protective activity against bacterial infection in immunosuppressed mouse; assay type: in vivo; details: ICR mice, cyclophosphamide 200 mg/kg, E.coli 1.0×10^7 CFU/mouse i.p.
Method: Nonspecific Protective Activity Against Bacterial Infection in Immunosuppressed Mouse
Protective effect against bacterial infection in immunosuppressed mouse was evaluated by utilizing the following experiment system.
To a group of ten ICR mice (male, 5-week aged), cyclophosphamide (200 mg/kg) was intraperitoneally administered. Three days later, the compound of this invention was also intraperitoneally administered. Twenty four hours later, E.coli. 589 strain, was intraperitoneally inoculated at 1.0×10^7 CFU/mouse. The protective activities against infection was evaluated from survival rate (%) of mice after six days of bacterial infection.

[4] = tested on: TNF; assay: TNF-producing activity (TNF titer in serum of mice, cytotoxicity assay using L929 cells); assay type: in vivo; details: 10 μg/mouse intravenously, Corynebacterium parvum-primed ICR mouse, serum at 90 minutes; titer = reciprocal of dilution showing 50% cytotoxicity
Method: TNF-producing activity was evaluated utilizing the following experiment system.
The first stimulating agent, 5% Corynebacterium parvum suspension (0.2 ml physiological saline solution) was intravenously administered to ICR mouse (female, 6-7 week-aged). Nine days later, the second stimulating agent, the compound of this invention was intravenously administered to the same mouse at 10 μg/mouse. In 90 minutes, 0.5-1 ml of blood was taken from the retro orbital plexus. The obtained blood was allowed to clot at room temperature for five to six hours, and centrifuged at 7200×g for five minutes to separate serum. The obtained serum was incubated at 56° C. for 30 minutes for inactivation before use in the following experiment.
TNF activity in the serum was measured with cytotoxicity assay using L929 cells. L929 cells were prepared in concentration of 6×10^4 cells/well (0.1 ml) RPMI 1640 medium containing 10% FBS and 2 μg/ml actinomycin D in 96-well plates. Serial dilution of obtained serum in RPMI 1640 medium containing 10% FBS was added to each well in the plate (0.1 ml/well). After a 48 hr incubation at 37° C., the viable cells were fixed with methanol. […] Next, absorbance at 550 nm was measured. Finally, cytotoxicity ratio (%) was calculated according to the following formula, and the reciprocal of dilution of the serum showing 50% cytotoxicity was determined for TNF titer in serum (U/ml). […]

[5] = Lethal toxicity in galactosamine-sensitized mice; assay type: in vivo; details: galactosamine-sensitized mice; intravenous, C57BL mouse, D-galactosamine/HCl 10 mg/mouse i.p.; observed to seventh day; read-out: LD50 (galactosamine load)
Method: as §1, §2, §3

[6] = compound 1 μg/ml, 37° C., 60 minutes, 0.1 μM FMLP, mouse peritoneal exudate cells

| Compound | activation at 1 µg/mL [1, 6] [%] | survival rate of mice after six days of infection ([3]; 0.05 mg/kg i.p.) [%] | activation at 1 µg/mL ([1]; Mus musculus) [%] | the amount of the TNF in serum [4] [U/ml] | LD50 at 168 h [5] [µg/kg] | other results |
| --- | --- | --- | --- | --- | --- | --- |
| CCCCCCCCCCCCCCCCC(CCCCCCCCCCC)CC(=O)O[C@H]1[C@H](OP(=O)(O)O)[C@@H](CO)OC(O)[C@@H]1NC(=O)C[C@H](O)CCCCCCCCCCC (mixture of isomers) [Compound 48, 2-deoxy-2-[(3R)-3-hydroxytetradecanamido]-4-O-phosphono-3-O-[(3RS)-3-undecylnonadecanoyl]-D-glucopyranose] | 69 |  |  |  |  |  |
| CCCCCCCCCCCCCCC(CCCCCCCCCCC)CC(=O)O[C@H]1[C@H](OP(=O)(O)O)[C@@H](CO)OC(O)[C@@H]1NC(=O)C[C@H](O)CCCCCCCCCCC (mixture of isomers) [Compound 47, 2-deoxy-2-[(3R)-3-hydroxytetradecanamido]-4-O-phosphono-3-O-[(3RS)-3-undecylheptadecanoyl]-D-glucopyranose] | 73 |  |  |  |  |  |
| CCCCCCCCCCCCCC(=O)OC(CCCCCCCCCCC)CC(=O)NC1C(OCC2OC(OP(=O)(O)O)C(NC(=O)CC(O)CCCCCCCCCCC)C(OC(=O)CC(O)CCCCCCCCCCC)C2O)OC(CO)C(OP(=O)(O)O)C1OC(=O)CC(CCCCCCCCCCC)OC(=O)CCCCCCCCCCCCC (stereo not shown) [Lipid A] |  | 75 |  |  |  | LD50 (galactosamine load) [2]: 0.3 µg/kg |
| CCCCCCCCCCCCCC(=O)OC(CCCCCCCCCCC)CC(=O)O[C@H]1[C@H](OP(=O)(O)O)[C@@H](CO)OC(O)[C@@H]1NC(=O)CC(O)CCCCCCCCCCC (stereo partly drawn) [GLA60, 2-deoxy-2-(3-hydroxytetradecanaymidno)-4-0-phosphorno-3-0-[(3-O-tetradecanoyl)-tetradecanoyl]-D-glucopyranose] |  | 43 | 71 | 216809 | 3 | survival rate of mice after six days of infection ([3]; 0.005 mg/kg i.p.): 33%; survival rate of mice after six days of infection ([3]; 0.5 mg/kg i.p.): 70% |
| CCCCCCCCCCCCC(CCCCCCCCCCC)CC(=O)O[C@H]1[C@H](OP(=O)(O)O)[C@@H](CO)OC(O)[C@@H]1NC(=O)C[C@H](O)CCCCCCCCCCC (mixture of isomers) [Compound 46, 2-deoxy-2-[(3R)-3-hydroxytetradecanamido]-4-O-phosphono-3-O-[(3RS)-3-undecylpentadecanoyl]-D-glucopyranose] |  |  |  | 292354 |  |  |
| CCCCCCCCCCCCCCC(CCCCCCCCCCC)CC(=O)O[C@H]1[C@H](OP(=O)(O)O)[C@@H](CO)OC[C@@H]1NC(=O)C[C@H](O)CCCCCCCCCCC (stereo partly shown) [Compound 47*] |  |  | 111 |  | 11.8 |  |
